Test results taken from ChEMBL document CHEMBL4627415, “Design and Structural Optimization of Dual FXR/PPARδ Activators” (J Med Chem, 2020).
Calls of active or inactive are those of the source. No cut-off for these calls is given here.

What was measured:
[1] = target: T1, Bile acid receptor (Homo sapiens) (UniProt Q96RI1); assay: Activation of human FXR LBD expressed in HEK293T cells assessed as induction of receptor activation at 20 uM incubated for 12 to 14 hrs by luciferase reporter gene assay; assay type: cell-based; conditions: HEK-293T
T1 sequence (whole entry): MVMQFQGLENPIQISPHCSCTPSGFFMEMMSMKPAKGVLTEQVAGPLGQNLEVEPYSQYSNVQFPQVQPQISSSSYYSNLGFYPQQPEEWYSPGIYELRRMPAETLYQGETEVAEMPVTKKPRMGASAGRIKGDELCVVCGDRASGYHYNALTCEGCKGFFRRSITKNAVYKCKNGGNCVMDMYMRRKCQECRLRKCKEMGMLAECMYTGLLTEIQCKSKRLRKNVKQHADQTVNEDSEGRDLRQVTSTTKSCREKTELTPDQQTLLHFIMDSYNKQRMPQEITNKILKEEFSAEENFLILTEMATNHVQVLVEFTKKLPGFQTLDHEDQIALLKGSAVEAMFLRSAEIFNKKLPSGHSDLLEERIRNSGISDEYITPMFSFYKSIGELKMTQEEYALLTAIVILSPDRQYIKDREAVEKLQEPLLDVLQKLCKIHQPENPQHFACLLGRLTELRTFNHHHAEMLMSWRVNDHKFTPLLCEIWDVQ

[2] = target: T2, Peroxisome proliferator-activated receptor delta (Homo sapiens, UniProt Q03181); assay: Activation of human PPAR-delta LBD expressed in HEK293T cells assessed as induction of receptor activation incubated for 12 to 14 hrs by luciferase reporter gene assay; assay type: cell-based, HEK-293T
T2 sequence (Q03181 whole entry): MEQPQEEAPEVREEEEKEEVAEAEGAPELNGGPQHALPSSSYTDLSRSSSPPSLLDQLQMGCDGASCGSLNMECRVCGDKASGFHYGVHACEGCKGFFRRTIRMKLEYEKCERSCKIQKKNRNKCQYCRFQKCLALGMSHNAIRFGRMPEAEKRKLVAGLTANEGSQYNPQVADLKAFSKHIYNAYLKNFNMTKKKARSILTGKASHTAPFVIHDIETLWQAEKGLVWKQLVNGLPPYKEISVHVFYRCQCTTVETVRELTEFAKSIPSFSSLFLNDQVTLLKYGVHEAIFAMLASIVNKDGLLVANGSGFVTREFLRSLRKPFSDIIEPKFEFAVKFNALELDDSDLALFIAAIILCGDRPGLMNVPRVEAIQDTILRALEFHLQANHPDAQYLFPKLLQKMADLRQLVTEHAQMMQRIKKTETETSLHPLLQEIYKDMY

[3] = target: T3, Peroxisome proliferator-activated receptor delta (Homo sapiens) (UniProt Q03181); assay: Activation of human PPAR-delta LBD expressed in HEK293T cells assessed as induction of receptor activation at 1 uM incubated for 12 to 14 hrs by luciferase reporter gene assay; assay type: cell-based; conditions: HEK-293T
T3 sequence (whole entry): T2 sequence (Q03181 whole entry)

Bile acid receptor = target: T4, Bile acid receptor (Homo sapiens, UniProt Q96RI1); assay: Activation of human FXR LBD expressed in HEK293T cells assessed as induction of receptor activation incubated for 12 to 14 hrs by luciferase reporter gene assay; assay type: cell-based, HEK-293T
T4 sequence (Q96RI1 whole entry): T1 sequence (whole entry)

[4] = target: T1, Bile acid receptor (Homo sapiens); assay: Activation of human FXR LBD expressed in HEK293T cells assessed as induction of receptor activation at 1 uM incubated for 12 to 14 hrs by luciferase reporter gene assay relative to GW4064; assay type: cell-based; conditions: HEK-293T
[5] = target: T3, Peroxisome proliferator-activated receptor delta (Homo sapiens); assay: Activation of human PPAR-delta LBD expressed in HEK293T cells assessed as induction of receptor activation at 1 uM incubated for 12 to 14 hrs by luciferase reporter gene assay relative to L165,041; assay type: cell-based; conditions: HEK-293T
[6] = target: T3, Peroxisome proliferator-activated receptor delta (Homo sapiens); assay: Activation of human PPAR-delta LBD expressed in HEK293T cells assessed as induction of receptor activation at 30 uM incubated for 12 to 14 hrs by luciferase reporter gene assay; assay type: cell-based; conditions: HEK-293T
[7] = target: T1, Bile acid receptor (Homo sapiens); assay: Activation of human FXR LBD expressed in HEK293T cells assessed as induction of receptor activation at 30 uM incubated for 12 to 14 hrs by luciferase reporter gene assay; assay type: cell-based; conditions: HEK-293T
[8] = target: T3, Peroxisome proliferator-activated receptor delta (Homo sapiens); assay: Activation of human PPAR-delta LBD expressed in HEK293T cells assessed as induction of receptor activation up to 10 uM incubated for 12 to 14 hrs by luciferase reporter gene assay; assay type: cell-based; conditions: HEK-293T
[9] = Aqueous solubility in pH 8 buffer by HPLC analysis; assay type: physicochemical
[10] = Stability in Sprague-Dawley rat liver microsomes assessed as remaining parent compound level at 10 uM presence of NADPH regenerating system by HPLC analysis; assay type: ADME, Microsome; conditions: read-out: Stability
HepG2 = assay: Toxicity in human HepG2 cells assessed as reduction in cell viability up to 100 uM incubated for 48 hrs by WST1 assay; assay type: cell-based; conditions: hepg2, 48 h
[11] = target: T1, Bile acid receptor (Homo sapiens); assay: Activation of human FXR LBD expressed in HEK293T cells assessed as induction of receptor activation at 1 uM incubated for 12 to 14 hrs by luciferase reporter gene assay; conditions: HEK-293T
[12] = target: T3, Peroxisome proliferator-activated receptor delta (Homo sapiens); assay: Activation of human PPAR-delta LBD expressed in HEK293T cells assessed as induction of receptor activation at 20 uM incubated for 12 to 14 hrs by luciferase reporter gene assay; assay type: cell-based; conditions: HEK-293T

| Structure (SMILES) | EC50 [2] [µM] | EC50 (Bile acid receptor) [µM] | %max [4] [%] | %max [5] [%] | further results |
| --- | --- | --- | --- | --- | --- |
| CC(C)c1onc(-c2ccccc2)c1COc1ccc(CCCCCC(=O)O)cc1 | > 10 | – | – | – | Activity [1]: inactive |
| CCCc1c(OCCCOc2ccc(OCC(=O)O)cc2)ccc(C(C)=O)c1O | – | – | – | – | Activity [3]: Active |
| CC(C)c1onc(-c2ccccc2)c1COc1ccc(Oc2ccc(C(=O)O)cc2)cc1 | – | 11 | 13 | – | Activity [6]: inactive |
| CC(C)c1onc(-c2ccccc2)c1COc1ccc(COc2ccc(C(=O)O)cc2)cc1 | > 30 | 2.3 | 5.1 | – | – |
| CC(C)c1onc(-c2ccccc2C(F)(F)F)c1COc1ccc(CCCC(=O)O)cc1 | > 30 | 4.4 | 37 | – | – |
| CC(C)c1onc(-c2ccccc2)c1COc1ccc(COc2cccc(C(=O)O)c2)cc1 | > 30 | – | – | – | Activity [7]: inactive |
| CC(C)c1onc(-c2c(Cl)cccc2Cl)c1COc1ccc(/C=C/c2cccc(C(=O)O)c2)c(Cl)c1 | – | – | – | – | Activity [8]: inactive; solubility [9]: < 0.1 µg/mL; remaining at 10 µM [10]: 10%; Activity (HepG2): Non-Toxic; Activity [11]: Active |
| CC(C)c1onc(-c2ccccc2Cl)c1COc1ccc(COc2ccc(C(C)(C)C(=O)O)cc2)cc1 | – | – | – | – | Activity [1]: inactive; Activity [12]: inactive |
| Cc1cccc(C)c1-c1noc(C(C)C)c1COc1ccc(CCCC(=O)O)cc1 | – | 7.7 | 15 | – | Activity [6]: inactive |
| Cc1onc(-c2ccccc2)c1COc1ccc(CCCC(=O)O)cc1 | – | – | – | – | Activity [7]: inactive; Activity [6]: inactive |
| CC(C)c1onc(-c2ccccc2)c1COc1ccc(CCCCC(=O)O)cc1 | > 30 | > 30 | – | – | – |
| CC(C)c1onc(-c2ccccc2)c1COc1ccc(COc2ccc(CCC(=O)O)cc2)cc1 | 11 | – | – | 32 | Activity [1]: inactive |

More lines, in order of falling EC50 [2], values ahead:

| EC50 [2] [µM] | EC50 (Bile acid receptor) [µM] | %max [4] [%] | %max [5] [%] | Structure (SMILES) | further results |
| --- | --- | --- | --- | --- | --- |
| 9 | 1.2 | 37 | 15 | Cc1cc(NCc2ccc(OCc3c(-c4c(Cl)cccc4Cl)noc3C(C)C)cc2)ccc1CC(=O)O | – |
| 7.2 | 4.7 | 17 | 15 | CC(C)c1onc(-c2ccccc2Cl)c1COc1ccc(COc2ccc(OCC(=O)O)cc2)cc1 | – |
| 4.3 | 11 | 11 | 54 | CC(C)c1onc(-c2ccccc2)c1COc1ccc(COc2ccc(CC(=O)O)cc2)cc1 | – |
| 3.6 | 1.6 | 29 | 15 | CC(C)c1onc(-c2c(Cl)cccc2Cl)c1COc1ccc(CNc2ccc(CC(=O)O)cc2)cc1 | – |
| 3.1 | 2 | 37 | 17 | CC(C)c1onc(-c2c(Cl)cccc2Cl)c1COc1ccc(COc2ccc(CC(=O)O)cc2)cc1 | – |
| 2 | 2.5 | 9 | 23 | CC(C)c1onc(-c2ccccc2Cl)c1COc1ccc(COc2ccc(CC(=O)O)cc2)cc1 | – |
| 1.8 | 0.8 | 117 | 15 | CC(C)c1onc(-c2c(Cl)cccc2Cl)c1COc1ccc(COc2ccc(CC(=O)O)cc2)c(Cl)c1 | – |
| 0.9 | 31 | 11 | 8.7 | CC(C)c1onc(-c2ccccc2)c1COc1ccc(CCCC(=O)O)cc1 | – |
| 0.8 | 3.8 | 16 | 9 | CC(C)c1onc(-c2ccccc2Cl)c1COc1ccc(CCCC(=O)O)cc1 | – |
| 0.7 | 6 | 51 | 15 | CC(C)c1onc(-c2c(Cl)cccc2Cl)c1COc1ccc(CCCC(=O)O)cc1 | – |
